Experimental data reported in patent publication US12180207B2 (ARRAY BIOPHARMA INC., priority 2018, dated 2024).

What was measured:
[1] = target: recombinant human FGFR2 cytoplasmic domain (amino acids 403-822) (Homo sapiens (Human), UniProt P21802); experiment: FGFR2 enzyme activity assay (LanthaScreen TR-FRET); format: biochemical; conditions: 15 μM ATP, 20 min incubation at 22° C., average of multiple determinations if made, read-out: FGFR2 Enz FRET IC50
How it was run: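 Substrate phosphorylation was read by TR-FRET using Eu-PY20 antibody (60 min, 22 °C) after a 20 min, 22 °C reaction. The reaction used 15 μM ATP, 100 nM fluorescent poly-GT peptide and His-tagged FGFR2 403-822 ([…]) at pH 7.5 with 2% DMSO.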

[2] = target: dephosphorylated FGFR1 (SEQ ID NO: 1, amino acids 458 to 765) (Homo sapiens (Human), UniProt P11362); experiment: FGFR enzyme binding assay (HTRF tracer displacement), FGFR1; conditions: 5 nM dephosphorylated FGFR1, average of multiple determinations if made
How it was run: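 Kinase and tracer were incubated with compound for 60 minutes at 22° C. Tracer displacement was then measured by HTRF, and results were expressed as POC with 1 μM control inhibitor defining full displacement.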

[3] = target: HEK-293 cells transfected with dox-inducible human wild type FGFR3 (Homo sapiens (Human), UniProt P22607); experiment: FGFR3 pFGFR cell assay (ELISA); format: cell-based; conditions: HEK-293 dox-inducible FGFR3, 1 hour compound, 100 ng/ml FGF-acidic
Protocol: FGFR3 pFGFR Cell Assay: • HEK-293 cells transfected with dox-inducible human wild type FGFR3 (SEQ ID NO: 5) were plated in a collagen or poly-D-lysine coated 96 well flat bottom plates at 4×10^5 cells/well in complete DMEM medium containing 10% FBS and 1 μg/ml doxycycline and allowed to attach for 24 h at 37° C., 5% CO2. Cells were treated with compound using 1:3 serial dilutions with a top final concentration of 5 μM. Compound was incubated on cells for 1 hour at 37° C., 5% CO2. Cells were then stimulated with a final concentration of 100 ng/ml human FGF-acidic for 5 minutes at 37° C., 5% CO2. Medium was removed and cells were lysed with lysis buffer containing phosphatase and protease inhibitors. Phospho FGFR3 was measured by ELISA (R&D Systems cat DYC2719). The ELISA captures total FGFR3 and detects total phospho tyrosine. Optical density was measured for each well using a Versamax reader at a wavelength of 450 nm. 100 POC was determined using no test compounds and 0 POC was determined using a control compound. The POC values were fit to a 4-parameter logistic curve as a function of the concentration of the compound, and the IC50 value is the point where the curve crosses 50 POC.

[4] = target: recombinant human FGFR3 (amino acids R397-T806) (Homo sapiens (Human), UniProt P22607); experiment: FGFR3 enzyme activity assay (LanthaScreen TR-FRET); format: biochemical; conditions: 25 μM ATP, 10 min incubation at 22° C., average of multiple determinations if made, read-out: FGFR3 Enz FRET IC50
How it was run: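 GST-HIS6-tagged human FGFR3 (R397-T806) was reacted with 100 nM Alexa Fluor 647-Poly-GT substrate and 25 μM ATP plus compound in HEPES/MgCl2/Triton buffer, pH 7.5, 2% DMSO, for 10 min at 22 °C.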

[5] = target: FGFR1 (SEQ ID NO: 1, amino acids 458-765) (Homo sapiens (Human), UniProt P11362); experiment: LC/MS FGFR1 kobs assay (covalent protein modification); format: binding; conditions: 500 nM FGFR1, 3 μM compound
How it was run: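 Covalent labeling of FGFR1 kinase domain (aa 458-765) tracked over time by intact-protein LC/MS after formic acid quench. kobs derived by fitting DMSO-normalized percent unmodified FGFR1 to an exponential decay model.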

Sequence of recombinant human FGFR3 (amino acids R397-T806) (P22607 397-806): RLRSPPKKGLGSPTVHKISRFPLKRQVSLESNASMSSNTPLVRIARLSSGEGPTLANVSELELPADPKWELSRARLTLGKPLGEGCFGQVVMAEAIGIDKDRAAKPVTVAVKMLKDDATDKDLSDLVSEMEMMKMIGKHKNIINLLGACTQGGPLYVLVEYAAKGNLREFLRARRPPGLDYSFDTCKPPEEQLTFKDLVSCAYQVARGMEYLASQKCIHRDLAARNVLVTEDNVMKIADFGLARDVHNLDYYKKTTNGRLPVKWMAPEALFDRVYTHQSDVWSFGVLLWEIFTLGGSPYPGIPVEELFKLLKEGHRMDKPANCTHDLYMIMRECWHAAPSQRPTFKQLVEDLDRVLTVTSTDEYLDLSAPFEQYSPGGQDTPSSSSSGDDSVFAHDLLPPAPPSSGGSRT
Sequence of dephosphorylated FGFR1 (SEQ ID NO: 1, amino acids 458 to 765) (P11362 458-765): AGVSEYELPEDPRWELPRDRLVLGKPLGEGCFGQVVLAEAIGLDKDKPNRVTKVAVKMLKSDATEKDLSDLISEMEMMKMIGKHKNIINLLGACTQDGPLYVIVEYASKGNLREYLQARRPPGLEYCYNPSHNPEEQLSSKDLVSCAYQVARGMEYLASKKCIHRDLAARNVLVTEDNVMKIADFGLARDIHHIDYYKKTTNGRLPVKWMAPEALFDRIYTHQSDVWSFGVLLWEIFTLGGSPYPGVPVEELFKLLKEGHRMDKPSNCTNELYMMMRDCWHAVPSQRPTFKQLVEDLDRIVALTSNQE
Sequence of FGFR1 (SEQ ID NO: 1, amino acids 458-765) (P11362 458-765): as above
Sequence of recombinant human FGFR2 cytoplasmic domain (amino acids 403-822) (P21802 402-821): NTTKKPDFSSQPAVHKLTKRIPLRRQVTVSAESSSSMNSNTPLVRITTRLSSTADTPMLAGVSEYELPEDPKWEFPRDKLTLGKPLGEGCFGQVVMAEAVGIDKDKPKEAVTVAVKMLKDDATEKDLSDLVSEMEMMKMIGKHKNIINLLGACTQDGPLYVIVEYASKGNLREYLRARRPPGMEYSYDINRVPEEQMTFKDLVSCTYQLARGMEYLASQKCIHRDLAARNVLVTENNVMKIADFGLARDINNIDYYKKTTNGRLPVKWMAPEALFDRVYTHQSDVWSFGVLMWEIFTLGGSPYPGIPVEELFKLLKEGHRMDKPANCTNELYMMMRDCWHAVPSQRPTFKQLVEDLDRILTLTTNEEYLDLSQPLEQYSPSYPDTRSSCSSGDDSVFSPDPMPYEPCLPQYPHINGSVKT
Sequence of HEK-293 cells transfected with dox-inducible human wild type FGFR3 (P22607 23-806): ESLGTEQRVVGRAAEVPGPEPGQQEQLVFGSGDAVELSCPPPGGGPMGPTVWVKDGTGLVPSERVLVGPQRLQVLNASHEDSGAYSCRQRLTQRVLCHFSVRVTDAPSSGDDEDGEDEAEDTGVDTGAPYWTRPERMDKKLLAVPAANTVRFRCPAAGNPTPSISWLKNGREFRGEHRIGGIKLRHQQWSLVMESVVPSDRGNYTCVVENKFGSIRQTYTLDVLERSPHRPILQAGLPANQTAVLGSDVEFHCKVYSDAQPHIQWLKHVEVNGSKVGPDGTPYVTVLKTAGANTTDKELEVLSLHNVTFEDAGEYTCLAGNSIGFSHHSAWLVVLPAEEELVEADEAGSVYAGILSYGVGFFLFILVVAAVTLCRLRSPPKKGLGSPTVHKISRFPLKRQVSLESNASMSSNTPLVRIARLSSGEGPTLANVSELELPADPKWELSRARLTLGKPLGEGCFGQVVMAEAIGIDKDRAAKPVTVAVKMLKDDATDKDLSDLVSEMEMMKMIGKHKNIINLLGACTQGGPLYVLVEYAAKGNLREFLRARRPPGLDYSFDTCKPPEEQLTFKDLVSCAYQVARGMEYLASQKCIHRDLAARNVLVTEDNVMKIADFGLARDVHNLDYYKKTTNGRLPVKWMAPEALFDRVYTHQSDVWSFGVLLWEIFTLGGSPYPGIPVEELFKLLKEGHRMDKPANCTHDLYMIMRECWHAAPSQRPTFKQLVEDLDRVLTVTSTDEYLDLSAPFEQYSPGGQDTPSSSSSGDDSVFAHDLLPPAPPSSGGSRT

Structure (SMILES) | IC50 [1] [nM] | IC50 [2] [nM] | IC50 [3] [nM] | IC50 [4] [nM] | FGFR1 Enz kobs [5] [min⁻¹]
C=CC(=O)N1CC2(CCN(C(=O)N3CCC(n4cc(-c5cc(OC)c6c(C#N)cnn6c5)cn4)CC3)CC2)C1 [Example 6, 6-(1-(1-(2-acryloyl-2,7-diazaspiro[3.5]nonane-7-carbonyl)piperidin-4-yl)-1H-pyrazol-4-yl)-4-methoxypyrazolo[1,5-a]pyridine-3-carbonitrile] | 4 | 157 | 72 | 4 | 0.00093
C=CC(=O)N1C[C@H]2CN(C(=O)N3CCC(n4cc(-c5cc(OC)c6c(C#N)cnn6c5)cn4)CC3)C[C@H]21 [Example 7, 6-(1-(1-((1S,5S)-6-acryloyl-3,6-diazabicyclo[3.2.0]heptane-3-carbonyl)piperidin-4-yl)-1H-pyrazol-4-yl)-4-methoxypyrazolo[1,5-a]pyridine-3-carbonitrile] | 6 | 52 | 110 | 2 | 0.00042
C=CC(=O)N1CC2(CCN(C(=O)N3CCC(n4cc(-c5cc(OC)c6c(C#N)cnn6c5)cn4)CC3)C2)C1 [Example 8, 6-(1-(1-(2-acryloyl-2,6-diazaspiro[3.4]octane-6-carbonyl)piperidin-4-yl)-1H-pyrazol-4-yl)-4-methoxypyrazolo[1,5-a]pyridine-3-carbonitrile] | 7 | 73 | 149 | 3 | 0.00124
C=CC(=O)Nc1ccc(CN2CCC(n3cc(-c4cc(OC)c5c(C#N)cnn5c4)cn3)CC2)cc1 [Example 9, N-(4-((4-(4-(3-cyano-4-methoxypyrazolo[1,5-a]pyridin-6-yl)-1H-pyrazol-1-yl)piperidin-1-yl)methyl)phenyl)acrylamide] | 5 | 56 | 28 | 4 | 0.0059
C=CC(=O)N(C)c1ccc(CN2CCC(n3cc(-c4cc(OC)c5c(C#N)cnn5c4)cn3)CC2)cc1 [Example 10, N-(4-((4-(4-(3-cyano-4-methoxypyrazolo[1,5-a]pyridin-6-yl)-1H-pyrazol-1-yl)piperidin-1-yl)methyl)phenyl)-N-methylacrylamide] | 6 | 56 | 38 | 6 | 0.0034
C=CC(=O)N1CCC(n2cc(-c3cc(OC)c4c(C#N)cnn4c3)cn2)CC1 [Example 11, 6-(1-(1-acryloylpiperidin-4-yl)-1H-pyrazol-4-yl)-4-methoxypyrazolo[1,5-a]pyridine-3-carbonitrile] | 7 | 210 | – | 7 | 0.0002
C=CC(=O)N1CCC(F)(C(=O)N2CCC(n3cc(-c4cc(OC)c5c(C#N)cnn5c4)cn3)CC2)CC1 [Example 13, 6-(1-(1-(1-acryloyl-4-fluoropiperidine-4-carbonyl)piperidin-4-yl)-1H-pyrazol-4-yl)-4-methoxypyrazolo[1,5-a]pyridine-3-carbonitrile] | 2 | 245 | 39 | 3 | 0.00056
C=CC(=O)N1CC(F)(C(=O)N2CCC(n3ncc(-c4cc(OC)c5c(C#N)cnn5c4)c3CC)CC2)C1 [Example 96, 6-(1-(1-(1-acryloyl-3-fluoroazetidine-3-carbonyl)piperidin-4-yl)-5-ethyl-1H-pyrazol-4-yl)-4-methoxypyrazolo[1,5-a]pyridine-3-carbonitrile] | 155 | 1620 | – | 291 | 0.00363
C=CC(=O)N1CC(C(=O)N2CCC(n3cc(-c4cc(OC)c5c(C#N)cnn5c4)c(CC)n3)CC2)C1 [Example 97, 6-(1-(1-(1-acryloylazetidine-3-carbonyl)piperidin-4-yl)-3-ethyl-1H-pyrazol-4-yl)-4-methoxypyrazolo[1,5-a]pyridine-3-carbonitrile] | 38 | 572 | – | 72 | 0.00276
C=CC(=O)N1CC(C(=O)N2CCC(n3cnc(-c4cc(OC)c5c(C#N)cnn5c4)c3)CC2)C1 [Example 98, 6-(1-(1-(1-acryloylazetidine-3-carbonyl)piperidin-4-yl)-1H-imidazol-4-yl)-4-methoxypyrazolo[1,5-a]pyridine-3-carbonitrile] | 6 | 218 | 1130 | 9 | 0.00167
C=CC(=O)N1CC(C(=O)N2CCN(c3ccc(-c4cc(OC)c5c(C#N)cnn5c4)cc3)CC2)C1 [Example 100, 6-(4-(4-(1-acryloylazetidine-3-carbonyl)piperazin-1-yl)phenyl)-4-methoxypyrazolo[1,5-a]pyridine-3-carbonitrile] | 5 | 57 | 21 | 2 | 0.0025
C=CC(=O)N1CC(C(=O)N2CCN(c3ncc(-c4cc(OC)c5c(C#N)cnn5c4)cc3C)CC2)C1 [Example 113, 6-(6-(4-(1-acryloylazetidine-3-carbonyl)piperazin-1-yl)-5-methylpyridin-3-yl)-4-methoxypyrazolo[1,5-a]pyridine-3-carbonitrile] | 42 | 388 | – | 105 | 0.00304
C=CC(=O)N1CC(F)(C(=O)N2CCN(c3cc(C)c(-c4cc(OC)c5c(C#N)cnn5c4)cn3)CC2)C1 [Example 114, 6-(6-(4-(1-acryloyl-3-fluoroazetidine-3-carbonyl)piperazin-1-yl)-4-methylpyridin-3-yl)-4-methoxypyrazolo[1,5-a]pyridine-3-carbonitrile] | 150 | 850 | – | 258 | 0.00369
C=CC(=O)N1CC(C(=O)N2CCN(c3ccc(-c4cc(OC)c5c(C#N)cnn5c4)nn3)CC2)C1 [Example 115, 6-(6-(4-(1-acryloylazetidine-3-carbonyl)piperazin-1-yl)pyridazin-3-yl)-4-methoxypyrazolo[1,5-a]pyridine-3-carbonitrile] | 25 | 90 | – | 18 | 0.0016
C=CC(=O)N1CC(C(=O)N2CCN(c3cnc(-c4cc(OC)c5c(C#N)cnn5c4)cn3)CC2)C1 [Example 116, 6-(5-(4-(1-acryloylazetidine-3-carbonyl)piperazin-1-yl)pyrazin-2-yl)-4-methoxypyrazolo[1,5-a]pyridine-3-carbonitrile] | 19 | 141 | – | 27 | 0.00277
COc1cc(-c2cnc(N3CCN(C(=O)C4(F)CN(C(=O)/C=C/CN(C)C)C4)CC3)cc2C)cn2ncc(C#N)c12 [Example 169, (E)-6-(6-(4-(1-(4-(dimethylamino)but-2-enoyl)-3-fluoroazetidine-3-carbonyl)piperazin-1-yl) -4-methylpyridin-3-yl)-4-methoxypyrazolo [1,5-a]pyridine-3-carbonitrile] | 80 | 788 | – | 83 | 0.00576
COc1cc(-c2cnn(C3CCN(C(=O)C4CN(C(=O)/C=C/CBr)C4)CC3)c2)cn2ncc(C#N)c12 [Example 180, (E)-6-(1-(1-(1-(4-bromobut-2-enoyl)azetidine-3-carbonyl)piperidin-4-yl)-1H-pyrazol-4-yl)-4-methoxypyrazolo[1,5-a]pyridine-3-carbonitrile] | – | 14 | – | 6 | 0.04552
